Like-named read-outs stand apart in the source and are kept apart here.
Key:
[1] = in vivo; details: male, Wistar, rat, in vivo, iv
Method: A saline solution (0.9% NaCl) was added to a mixture of cinnamaldehyde (density = 1.05 g/mL) and Cremophor® RH 40 (1:1 v/v) in order to obtain a 12.5 mg/mL cinnamaldehyde emulsion in the presence of ethanol (10% of final volume). A group (n = 4) of male Wistar rats (200–250 g) fasted for 24 h was anesthetized during the experimental period and received 0.4 mL via a femoral intravenous infusion (rate = 0.2 mL/min; 2 min) of 12.5 mg/mL cinnamaldehyde emulsion (20 mg/kg cinnamaldehyde dose).
At the end of the infusions and at fixed time points, CSF samples (50 μL) were withdrawn and blood samples (100 μL) were collected. The CSF was withdrawn using the cisternal puncture method described by van den Berg et al., which requires a single needle stick and allows the collection of serials (40–50 μL) CSF samples that are virtually blood-free. A total volume of about a maximum of 150 μL of CSF/rat (i.e., three 50 μL samples/rat) was collected during the experimental session, choosing the time points (n = 3–5, taking into account a maximum of three collections per rat) in order to allow the restoring of the CSF physiological volume.
The chromatographic apparatus consisted of a modular system (model LC-10 AD VD pump and model SPD-10A VP variable wavelength UV−vis detector; Shimadzu, Kyoto, Japan) and an injection valve with 20 μL sample loop (model 7725; Rheodyne, IDEX, Torrance, CA, USA). Separations were performed at room temperature on a 5 μm Hypersil BDS C-18 column (150 mm × 4.6 mm i.d.; Alltech Italia Srl, Milan, Italy) equipped with a guard column packed with the same Hypersil material. The volume injection was 10 μL. Data acquisition and processing were performed on a personal computer using CLASS-VP Software, version 7.2.1 (Shimadzu Italia, Milan, Italy).
For CSF simulation, standard aliquots of balanced solution (Dulbecco’s phosphate buffer saline—DPBS—without calcium and magnesium) in the presence of 0.45 mg/mL BSA were used.

[2] = system: PC12 cells; assay: Dopamine release from neuronal differentiated PC12 cells (ELISA); assay type: cell-based, rat
Method: PC12 cell line (RRID:CVCL_0481), derived from rat adrenal gland pheochromocytoma, was a kind gift from Dr Federica Brugnoli from the Department of Translational Medicine, University of Ferrara, Ferrara (Italy). The cells were grown in RPMI-1640 (HiGlutaXL) medium (Microtech, Naples, Italy), supplemented with 100 µg/mL streptomycin and 100 IU/mL penicillin, 10% horse serum (HS), and 5% fetal bovine serum (FBS). PC12 cells were gently removed from the 4 µg/cm^2 collagen IV-coated flask with a rubber scraper, transferred as cell suspension into a Falcon tube and resuspended through a sterile tip to avoid any clumping, then split into separate flasks twice weekly. To differentiate neuronal phenotypes, PC12 cells were seeded in 4 µg/cm^2 collagen IV-coated 12-well plates at a density of 5000 cells/well, and they were then left to adhere to the well for 24 h. […] All the proliferative and differentiated cultures were maintained at 37 °C in a humidified 5% CO2 atmosphere.
PC12 cells differentiated to neuronal-like phenotype in collagen IV-treated 12-well plates, were first synchronized all to the same circadian phase and cell cycle by a serum shock (50% HS and 50% DMEM HiGlutaXL) for 2 h at 37 °C [49] to achieve a synchronous release of dopamine. Synchronization medium was then aspirated off, cells were washed with 3 × 1 mL and equilibrated for 15 min at 37 °C in 1 mL of Krebs Ringer HEPES (KRH) physiological buffer, following the recipe of Mount et al. (25 mM HEPES/Tris, pH 7.4, 1.2 mM KH2PO4, 125 mM NaCl, 4.8 mM KCl, 1.2 mM MgSO4, 2.2 mM CaCl2, 5.6 mM glucose, 1.0 mM ascorbic acid, 10 µM pargyline, 1.0 µM nomifensine). […] To remove cell debris, all samples of 1 mL incubation KRH at the end of treatments were centrifuged at 1000× g for 20 min at 4 °C and stored at −20 °C until dopamine levels were determined by ELISA assay.
Dopamine levels in 1 mL incubation KRH buffer were detected by means of an ELISA assay, based on the […] ELISA principle for detection of dopamine, following manufacturer’s instructions (IBL International, Hamburg, Germany–catalog no: RE59161; purchased from Tecan Italia S.r.I, Milan, Italy). After the substrate reaction, the intensity of the developed color was proportional to the amount of dopamine, detected at 450 nm using a microplate reader spectrophotometer (Sunrise® Microplate Reader, Tecan Trading AG, Männedorf, Switzerland). Results of samples were determined directly using the standard curve. Results are presented as mean ± SE values of four independent experiments. Data were plotted and analyzed with GraphPad software (Prism, version 7.0, San Diego, CA, USA).

[3] = rats, cited from earlier work

With `C=CCc1ccc(O)c(OC)c1` [Eugenol] the “Tmax: time of Cmax in CSF” value [1] was 10 min, the AUC ([1]; 20 mg/kg) was 935 ng·h/mL and the Cmax ([1]; 20 mg/kg) was 2790 ± 180 ng/mL. For the same molecule, the “time within which CSF concentrations decreased to zero or near to zero” value ([1]; 20 mg/kg) was ≤ 45 min, the Kp at 10 min ([1]; R: ratio of concentration between CSF and bloodstream at Tmax) was 0.96 and the “effect on dopamine release over pre-treatment baseline” value ([2]; 25 µM, 5, 15, 30, 60 and 120 min, baseline 393 ± 12 pg/mL, p < 0.001 at 5, 15, 120 min, p < 0.05 at 30, 60 min) was “statistically significant increase”. For the same molecule, the “incubation time with the higher effect on dopamine release” value ([2]; 25 µM, time course 5, 15, 30, 60, 120 min, U-shaped curve) was 120 min, the “concentration giving the lower effect on dopamine release, still significant vs. basal” value ([2]; 0.5, 1, 2, 5 and 25 µM for 5 min, basal release 947 ± 102 pg/mL) was 5 µM and the “t1/2 of the second elimination phase” value ([3]; iv eugenol) was 13 to 20 min. The Cmax ([3]; oral 40 mg/kg) was “about 0.25 μg/mL”.
